Paper PMC10479830, “Nucleoside analogs NM107 and AT-527 are antiviral against rubella virus” (PNAS Nexus, 2023)
Where two headings read alike, the source gives them in different places.

Key:
[1] = test system: rubella RA27/3 virus; test: microbe, parasite or virus in culture; type: cell-based; conditions: for activity against rubella in A549 cells: dose-response; for inhibition of infection in primary screen: 1 µM, compared with vehicle alone; for inhibition at 1 µM: Rubella virus, A549, read-out: inhibition of infection in primary screen
From the text: (§1) We developed a high-throughput, high-content, cell-based assay to monitor rubella virus infection of the human respiratory cell line A549, as the respiratory tract is infected in humans. […] We infected A549 cells with the rubella virus vaccine strain (RA27/3) and monitored infection using an antibody to the viral glycoprotein E1 (Fig. 1A) ([13]). […] To evaluate the utility of nanchangmycin as a positive control for our assay development, we performed a dose–response assay for nanchangmycin using automated fluorescent microscopy to quantify the cell number as a surrogate for cell viability and percent infection (Fig. 1A).
A549 cells were plated in 384 well plates at 3,000 cells/well, HBMEC were plated at 7,000 cells/well, or Jeg-3 cells were plated at 3,000 cells/well in 20 μL growth media. The next day, 50 nL of drugs were added to assay wells, yielding a final concentration of 1 µM. The positive control nanchangmycin (n = 32) and the negative control DMSO (n = 32) were spotted on each assay plate. […] HBMECs were spin-infected by centrifuging at 1,250×g for 1 h at 25°C. Cells were fixed at 48 h post infection (hpi) in 4% formaldehyde/phosphate-buffered saline (PBS) for 15 min at room temperature and then washed twice with PBS. Cells were blocked with blocking buffer [2% bovine serum albumin in PBS with 0.1% Triton X-100 (PBST)]) for 1 h and incubated with primary antibody (mouse antirubella E1, CDC, 1 μg/mL) overnight at 4°C. […] Cells were washed three times with PBST and imaged using ImageXpress Micro (Molecular Devices). Cells were imaged with a 10× objective capturing four sites per well. The total number of cells and the percentage of infected cells were measured using the MetaXpress 5.3.3 cell scoring module. The aggregated percent infection of the DMSO and 2 µM nanchangmycin control wells on each assay plate were used to calculate Z′-factors. Sample well infection was normalized to aggregated DMSO plate control wells and expressed as percentage of control (POC = [%Infection sample/Average %Infection DMSO] × 100) and Z-score (Z = [%Infection sample − Average %Infection DMSO]/Standard Deviation %Infection DMSO) in Spotfire (PerkinElmer). Candidate hits were selected as compounds with POC <40% and viability >60%, compared with vehicle control.
(§2) Drugs were purchased as powders from Selleckchem, MedchemExpress, and MedKoo and suspended in DMSO. Drugs were arrayed in 8-pt dose–response in 384 well plates. Infections were performed using the screening conditions. DMSO (n = 32) and 2 µM nanchangmycin (n = 16) were included on each validation plate as controls for normalization. Infection at each drug concentration was normalized to aggregated DMSO plate control wells and expressed as POC (POC = %Infection sample/Average %Infection DMSO cont). A nonlinear regression curve fit analysis (GraphPad Prism 8) was performed on POC infection and cell viability using log10 transformed concentration values to calculate IC50 values for infection and CC50 values for cell viability. SI was calculated as a ratio of the drug's CC50 and IC50 values (SI = CC50/IC50).

[2] = test system: A549 cells; test: cell number (cell viability) in A549 cells, Hoechst 33342, automated microscopy; type: cell-based, human; conditions: for cell viability in primary screen: 1 µM
From the text: as §1
(§3) A549 cells were plated in 384 well plates at 3,000 cells/well, HBMEC were plated at 7,000 cells/well, or Jeg-3 cells were plated at 3,000 cells/well in 20 μL growth media. The next day, 50 nL of drugs were added to assay wells, yielding a final concentration of 1 µM. The positive control nanchangmycin (n = 32) and the negative control DMSO (n = 32) were spotted on each assay plate. One hour later, cells were infected with rubella virus at a multiplicity of infection (MOI) = 0.234 for A549s, MOI = 0.1 for HBMEC, MOI = 0.05 for Jeg-3 cells). […] HBMECs were spin-infected by centrifuging at 1,250×g for 1 h at 25°C. Cells were fixed at 48 h post infection (hpi) in 4% formaldehyde/phosphate-buffered saline (PBS) for 15 min at room temperature and then washed twice with PBS. Cells were blocked with blocking buffer [2% bovine serum albumin in PBS with 0.1% Triton X-100 (PBST)]) for 1 h and incubated with primary antibody (mouse antirubella E1, CDC, 1 μg/mL) overnight at 4°C. Cells were washed three times with PBST and incubated in secondary (1:1000 antimouse Alexa Fluor 488 and 5 μg/mL Hoechst 33342) for 1 h at room temperature. Cells were washed three times with PBST and imaged using ImageXpress Micro (Molecular Devices). Cells were imaged with a 10× objective capturing four sites per well. The total number of cells and the percentage of infected cells were measured using the MetaXpress 5.3.3 cell scoring module. The aggregated percent infection of the DMSO and 2 µM nanchangmycin control wells on each assay plate were used to calculate Z′-factors. Sample well infection was normalized to aggregated DMSO plate control wells and expressed as percentage of control (POC = [%Infection sample/Average %Infection DMSO] × 100) and Z-score (Z = [%Infection sample − Average %Infection DMSO]/Standard Deviation %Infection DMSO) in Spotfire (PerkinElmer). Candidate hits were selected as compounds with POC <40% and viability >60%, compared with vehicle control.
as §2

[3] = test system: rubella virus; test: rubella virus infection of Jeg-3 cells, dose-response; type: cell-based; conditions: Jeg-3 cells, dose-response
Description: Since rubella can cause congenital infections, we next developed assays in the human trophoblast cell line Jeg-3.
as §3, §2

[4] = test system: rubella virus; test: rubella virus infection of HBMEC, dose-response; type: cell-based; conditions: dose-response
Description: Rubella virus can infect diverse tissues in vivo, and viruses can show tissue-specific dependencies on host factors. […] First, we developed assays in human brain microvascular endothelial cells (HBMECs) as a model for endothelial cells. We again used nanchangmycin to optimize the assay (Fig. 3A and B).
as §3, §2

[5] = cell number (cell viability) in A549 cells, Hoechst 33342, automated microscopy; type: cell-based, human; conditions: human, A549 cells, 1 µM, compared with vehicle alone, read-out: cell viability in primary screen
From the text: as §1, §3, §2

[6] = test system: A549 cells; test: ATPLite assay of cytotoxicity in A549 cells; type: cell-based, human
From the text: To determine whether LY2090314 is targeting GSK-3 or potentially a different target, we tested two additional GSK-3 inhibitors, AZD2858 and CHIR99021. […] We also validated the PIKfyve inhibitor APY0201, known to block entry of viruses that use endosomal entry routes and found robust activity (SI = 102). […] All three of the NAMPT inhibitors identified in the screen (STF-118804, GMX1778, and daporinad) validated with high potency (SI > 500).

Compound: Cc1c(-c2ccc(N3CCc4cccc(C(=O)Nc5nc6ccccc6s5)c4C3)nc2C(=O)O)cnn1CC12CC3CC(CC(C3)C1)C2 [A-1331852]
- activity against rubella in A549 cells ([1]; A549 cells): little activity
- toxicity in A549 cells [2]: significant toxicities

Compound: Cc1cccc(/C=N/Nc2cc(N3CCOCC3)n3nc(-c4ccncc4)cc3n2)c1 [APY0201]
- selectivity index (SI = CC50/IC50) ([1]; A549 cells): 102
- activity against rubella in Jeg-3 cells [3]: active
- activity against rubella in HBMEC [4]: showed activity

Compound: CN1CCN(S(=O)(=O)c2ccc(-c3cnc(N)c(C(=O)Nc4cccnc4)n3)cc2)CC1 [AZD2858]
- activity against rubella in A549 cells ([1]; A549 cells): little activity

Compound: Cc1c[nH]c(-c2cnc(NCCNc3ccc(C#N)cn3)nc2-c2ccc(Cl)cc2Cl)n1 [CHIR99021]
- activity against rubella in A549 cells ([1]; A549 cells): little activity

Compound: Cn1cc(C2=C(c3cccc(N)c3)C(=O)NC2=O)c2ccccc21 [CP21R7]
- inhibition of infection in primary screen ([1]; A549 cells): > 60%
- cell viability in primary screen [2]: > 60%

Compound: N#CN=C(NCCCCCCOc1ccc(Cl)cc1)Nc1ccncc1 [GMX1778]
- selectivity index (SI = CC50/IC50) ([1]; A549 cells): > 500
- inhibition at 1 µM [1]: > 60%
- activity against rubella in Jeg-3 cells [3]: active
- viability at 48 h, 1 µM [5]: > 60%
- IC50 ([6]; Homo sapiens, A549, read-out: IC50 of ATP content depletion (ATPLite)): 20 nM
- activity against rubella in HBMEC [4]: showed activity

Compound: CCc1c(O)cc(O)c(C(=O)c2ccc(OCCN3CCOCC3)c(OC)c2)c1CC(=O)N(CCOC)CCOC.Cl [KW-2478]
- inhibition of infection in primary screen ([1]; A549 cells): > 60%
- cell viability in primary screen [2]: > 60%

Compound: CN1CCC(NC(=O)c2cc(-c3c(O)cc(O)cc3Oc3ccc([N+](=O)[O-])cc3)on2)CC1 [NMS-E973]
- inhibition of infection in primary screen ([1]; A549 cells): > 60%

Compound: Cc1ccc(S(=O)(=O)Cc2nc(-c3ccc(C(=O)NCc4cccnc4)cc3)oc2C)cc1 [STF-118804]
- inhibition of infection in primary screen ([1]; A549 cells): > 60%
- activity against rubella in Jeg-3 cells [3]: active
- cell viability in primary screen [2]: > 60%
- IC50 ([6]; A549 cells, read-out: IC50 of ATP content depletion (ATPLite)): 10 nM
- activity against rubella in HBMEC [4]: showed activity

Compound: N#Cc1c(Oc2ccc(F)c(NC(=O)Cc3cccc(C(F)(F)F)c3)c2)ccc2nc(NC(=O)C3CC3)sc12 [TAK-632]
- activity against rubella in A549 cells ([1]; A549 cells): little activity

Compound: C/C=C/C[C@@H](C)[C@@H](O)[C@H]1C(=O)N[C@@H](CC)C(=O)N(C)[C@H](C)C(=O)N(CC)[C@@H](C(C)C)C(=O)N[C@@H](C(C)C)C(=O)N(C)[C@@H](CC(C)C)C(=O)N[C@@H](C)C(=O)N[C@H](C)C(=O)N(C)[C@@H](CC(C)C)C(=O)N(C)[C@@H](CC(C)C)C(=O)N(C)[C@@H](C(C)C)C(=O)N1C [alisporivir]
- activity against rubella in A549 cells ([1]; A549 cells): little activity

Compound: Cc1cccc(/C=N/Nc2cc(N3CCOCC3)nc(OCCc3ccccn3)n2)c1 [apilimod]
- selectivity index (SI = CC50/IC50) ([1]; A549 cells): > 8
- activity against rubella in Jeg-3 cells [3]: active
- activity against rubella in HBMEC [4]: showed activity

Compound: O=C(/C=C/c1cccnc1)NCCCCC1CCN(C(=O)c2ccccc2)CC1 [daporinad]
- selectivity index (SI = CC50/IC50) ([1]; A549 cells): > 500
- inhibition at 1 µM [1]: > 60%
- activity against rubella in Jeg-3 cells [3]: active
- viability at 48 h, 1 µM ([5]; A549 cells (infected with rubella virus RA27/3)): > 60%
- IC50 ([6]; Homo sapiens, A549 cells, read-out: IC50 of ATP content depletion (ATPLite)): 10 nM
- activity against rubella in HBMEC [4]: showed activity

Compound: COc1c(C)c2c(c(O)c1C/C=C(\C)CCC(=O)O)C(=O)OC2 [mycophenolic acid]
- selectivity index (SI = CC50/IC50) ([1]; A549 cells): 6
- activity against rubella in Jeg-3 cells [3]: active
- toxicity in A549 cells ([2]; human, 48 h): higher toxicity in A549 cells than in Jeg-3 cells
- activity against rubella in HBMEC [4]: showed activity

Compound: CO[C@H]1CC[C@@H](O[C@H]2C[C@H]([C@]3(C)CC[C@]4(C[C@H](O)[C@@H](C)[C@@H]([C@@H](C)/C=C(\C)C(=O)[C@H](C)C[C@H](C)C(=O)O)O4)O3)O[C@]3(O[C@@H]([C@H]4O[C@@](O)(CO)[C@H](C)C[C@@H]4C)C[C@@H]3C)[C@@H]2C)O[C@@H]1C [nanchangmycin]
- IC50 ([1]; A549 cells, 48 hpi, read-out: half-maximal inhibitory concentration (IC50), rubella virus infection): 30 nM
- EC50 ([1]; A549 cells, MOI = 0.2, 48 hpi, read-out: EC50 (printed in Fig. 1B)): 30 nM
- activity against rubella in Jeg-3 cells [3]: active
- CC50 ([2]; A549 cells, cell number, read-out: half-maximal cytotoxicity concentration (CC50)): 3000 nM

Compound: CC1(C)CCC(c2ccc(Cl)cc2)=C(CN2CCN(c3ccc(C(=O)NS(=O)(=O)c4ccc(N[C@H](CCN5CCOCC5)CSc5ccccc5)c(S(=O)(=O)C(F)(F)F)c4)cc3)CC2)C1 [navitoclax]
- activity against rubella in A549 cells ([1]; A549 cells): little activity
- toxicity in A549 cells [2]: significant toxicities

Compound: COC1=CC(c2cc3ccccc3[nH]2)=N/C1=C\c1[nH]c(C)cc1C [obatoclax]
- activity against rubella in A549 cells ([1]; A549 cells): little activity
- activity against rubella in Jeg-3 cells [3]: active
- toxicity in A549 cells [2]: significant toxicities
- activity against rubella in HBMEC [4]: showed activity
